Test results reported in paper PMC8412337, “Alpha-single chains of collagen type VI inhibit the fibrogenic effects of triple helical collagen VI in hepatic stellate cells” (PLoS ONE, 2021).

Assays:
Assay type in all cases: cell-based
[1] = test system: primary rat HSC; assay: FACS analysis of apoptosis (propidium iodide DNA content)
Description: Activated HSC (third passage) were serum starved for 24 h in standard medium without FBS (starving medium), followed by dissociation with 500 μl 0.05% trypsin-EDTA (Biochrom, Berlin, Germany) and neutralization with 30 ml starving medium containing 1 g/l soybean trypsin inhibitor and 1 g/l ovalbumin. Alternatively, cells were scraped carefully with a cell-scraper (Costar, Cambridge, MA, USA) to exclude any potential effect of trypsin. After centrifugation at 800 x g for 10 min, cells were washed twice with 20 ml PBS (w/o Ca^2+, Mg^2+; Biochrom, Berlin, Germany), resuspended in starving medium and plated at a density of 1.5-2x10^6 in 1.7 ml starving medium in 6-well plates (NUNC, Wiesbaden, Germany). Cells were then treated with starving medium, soluble CI or CVI (both at a final concentration of 30 mg/l), or 10% FBS. For quantification of spreading, cells that had attached were counted 12 hours after plating and spreading efficiency was determined as percentage of plated cells in each group. De-novo DNA synthesis and apoptosis were assessed by morphological criteria, Cell death detection ELISA and FACS analysis as described below. […] After blocking the cells 1h with DMEM+1% FBS, the cells were incubated with primary antibodies against a-actin (Sigma-Aldrich, Taufkirchen, Germany, #A2547; dilution 1:200) and GFAP (Sigma-Aldrich, #G9269; dilution 1:20) followed by a washing step with PBS and the incubation with fluorescence-labeled secondary antibodies (Alexa Fluor 546 & Alexa Fluor 488, Molecular Probes, Eugene, USA, #A11030 & #A11034; dilution 1:100). […] Cells were analyzed by fluorescence microscopy (Zeiss, Jena, Germany; Kodak Ektachrome P1600 and a quantitative staining analysis was performed using Image J software (version 1.50i; National Institutes of Health, Bethesda, […], USA).
10^5 of freshly set cells were treated with starving medium, CI, CVI or 10% FBS for 24 or 48 hours as described before. […] Fixed cells were stained with propidium iodide (50 mg/l) in a final volume of 1 ml before being subjected to fluorescence activated cell sorting (FACS) analysis.

[2] = test system: primary rat HSC; assay: Cell Death Detection ELISA (oligonucleosomal DNA fragments); settings: OD of sample divided by OD of 10% FBS group, three independent experiments
Description: 10^5 cells were seeded in 6-well plates and treated with starving medium or medium plus CI, CVI or 10% FBS. After 24 or 48 h floating and adherent cells were pooled, and lysed with 500 μl of 1% SDS, 10 mM Tris, pH 7.4 (lysis buffer), for 30 min at 4°C. Lysed cells were transferred to 1.5 ml Eppendorf tubes and centrifuged at 13,000 rpm for 20 min, to separate low molecular weight DNA (oligonucleosome-sized fragments derived from apoptotic cells) from high molecular weight DNA (from viable cells). 400 μl of the supernatant containing oligonucleosomes were transferred to another Eppendorf tube and diluted 1:5 with lysis buffer. 100 μl aliquots were used for the Cell Death Detection ELISA, which was performed according to the manufacturer’s instructions (Boehringer Mannheim, Germany). In brief, antibodies against histones were coated onto 96-wells, 100 μl lysate-samples containing oligonucleotides and histones were added and incubated for one hour. After washing, wells were incubated with anti-double strand DNA antibody coupled to peroxidase for one hour. After reaction with peroxidase substrate, absorbance was measured at 405 nm using an ELISA reader. Background values (lysis-buffer alone) were subtracted, and results are shown as enrichment factor [enrichment factor: OD (optical density) of the sample (apoptotic cells) divided by the OD of the corresponding control (viable cells, 10% FBS-group). A defined positive control was prepared using a hypertonic buffer, containing 10 mM Tris, 400 mM NaCl, 5 mM CaCl2 and 10 mM MgCl2, instead of starving medium.

[3] = test system: primary rat HSCs; assay: [3H]-thymidine incorporation, de-novo DNA synthesis; settings: primary rHSCs
[4] = test system: CFSC (rat HSC cell line); assay: as above; set-up: proliferative effect of reconstituted CVI after denaturation and refolding: dose or concentration left out as unconfirmed
Description: Immediately before use, guanidine hydrochloride (6 mol/l) was cleared over night by activated charcoal (Merck, Darmstadt, Germany) and adjusted to pH 8.0 by adding 50 mmol/l tris(hydroxymethyl)aminomethane (Tris). Freeze dried CVI (10 mg/ml) was mixed with 1 ml Tris-buffered guanidine-hydrochloride, incubated at room temperature for 1 h with frequent thorough vortex followed by 1 h at 37°C. The buffer from the clear supernatant after centrifugation (10.000 x g, 10 min, 4°C) was replaced for 150 mmol/l HAc by gelfiltration (Sephadex-G25; GE Healthcare, Munich, Germany). This procedure regains the biological activity of CVI on CFSC (S1 Fig).
5x10^3CFSC in 100 μl 10% FBS were seeded into a 96-well flat-bottom tissue culture plate (Nunc, Roskilde, Denmark). After 24 hours, medium was completely removed, and cells were rinsed with 200 μl phosphate-buffered saline and 100 μl standard medium containing only 0.25% FBS were added. Cells were cultured for additional 24 h prior to treatment. Synchronized microcultures in 96-well plates were treated for 2 hours in reduction medium. […] [^3H]-thymidine incorporation was measured as described before. […] After neutralization with 800 mmol/l HCl, lysates were collected to a glassfibre mat and the de-novo DNA synthesis was assessed by liquid scintillation (LKB Wallac, Bromma, Sweden) and the radioactive decay was counted (for) a minute (cpm).

## CVI: Human collagen VI isolated from placentas by pepsin digestion; triple helical, soluble
[1]; FACS, CVI-treated versus CI-treated group, p<0.05
  fold less apoptosis compared to the CI-treated group: approximately 3 fold
[1]; serum-starved primary rat HSC, text: within 24 hours, Fig 1C legend: 48 h, propidium iodide, three independent experiments
  percentage of apoptotic cells (FACS): 25%
[2]; after 24 hours
  enrichment factor of oligonucleosomal fragments: 2
[2]; after 48 hours
  enrichment factor of oligonucleosomal fragments: 6
[3]; CVI at 10 μg/ml, within 24 hours, three independent experiments
  de-novo DNA synthesis ([3H]-thymidine incorporation): stimulated a robust de-novo DNA synthesis
[3]; CVI from 10 μg/ml up to 100 μg/ml, concentration dependent
  de-novo DNA synthesis ([3H]-thymidine incorporation) at increasing concentration: equaling the effects of 10% FBS
[4]; 24 h, n = three independent experiments
  de-novo DNA synthesis ([3H]-thymidine incorporation): induced a comparable increase in de-novo DNA synthesis
[4]; three independent experiments (S1 Fig)
  proliferative effect of reconstituted CVI after denaturation and refolding: regains its biological activity
